# Like-named read-outs stand apart in the source and are kept apart here.
# Tests used:
# [1] = system: human developmental and reproductive toxicity; conditions: oral, ref Supplementary Data Sheet 1, cited from earlier work
# rats = conditions: ref Supplementary Data Sheet 1, cited from earlier work
# [2] = system: developmental or reproductive toxicity in animal or human; conditions: cited from earlier work
# rabbits = system: rabbits; design: method as in Supplementary Data Sheet 1; conditions: ref Supplementary Data Sheet 1, cited from earlier work
# [3] = Human in vivo PK data: concentration-dose ratio (CDR) and toxicokinetic variability factor (TKVF); design: 95% percentile (Conc-dose-ratio): unit not given here;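 also: Literature-pooled human in vivo PK data, plasma, serum or cord blood concentrations per daily dose, weighted by study population size across non-pregnant, pregnant and fetal groups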
# [4] = system: human induced pluripotent stem cells (hiPSCs); test: ReproTracker (cardiomyocyte, hepatocyte-like and neuronal differentiation); format: cell-based
# Text: The ReproTracker assay assesses chemical perturbation of early embryonic development by evaluating key events of cardiomyocyte, hepatocyte-like (HLC) and neuronal cell differentiation using human induced pluripotent stem cells (hiPSCs). The ReproTracker protocol is described in ([Jamalpoor et al., 2022]; [Moreau et al., 2023]) and was followed introducing a few modifications to allow for concentration response analysis. […] Lineage specific differentiation was then investigated by assessment of gene expression patterns of cell-specific biomarkers, induced cytotoxicity (AlamarBlue cell viability assay) and by morphological profiling. Gene biomarkers quantified by multiplex qRT-PCR included BMP4 and MYH6 for cardiomyocytes, FOXA2 and AFP for hepatocyte-like cells, PAX6 and NESTIN for neural rosette lineage. […] Saccharin was used as a negative control substance for all 3 lineages. For dose dependent qRT-PCR analysis quality control filtered Ct values were normalised using an adaptation of the Pfaffl ([Pfaffl, 2001]) method to calculate ΔCt values with respect to biomarker and housekeeping gene amplification efficiencies. […] In addition, Alamar blue read outs were taken from the differentiating cells at day 7 and the end of each differentiation to measure cell viability in a dose dependent way. The AlamarBlue readout was normalised and transformed using a Bayesian hierarchical approach The Bayesian model assumes measurement between rows on the treatment plates are correlated but allows for differences in average sample response between rows. […] The final cell viability PODs were those at time point end (day 14 for cardiomyocytes, day 21 for HCLs and day 13 for neural) and had CDS above or equal to 0.5. Both the gene biomarker PODs and cell viability/cytotoxicity PODs for each tested lineage are considered for BER calculation.
# [5] = system: human induced pluripotent stem cell (hiPSC); test: devTOX quickPredict (ornithine/cystine ratio, cell viability); format: cell-based
# Protocol: devTOX quickPredict is a human induced pluripotent stem cell (hiPSC) -based assay that predicts the concentration at which a compound may elicit developmental toxicity. […] Assays were performed as described in [Palmer et al. (2013)] with modifications. Briefly undifferentiated hiPSCs are exposed to the compound for 48 h, with media and test article replacement every 24 h. Ornithine and […] concentrations were measured from the final 24-h treatment using Ultra-Performance Liquid Chromatography-High Resolution Mass Spectrometry (UPLC-HRMS). Cell viability was assessed after sample collection using the CellTiter-Fluor Cell Viability Assay (Promega). Dose-response analysis for the o/c ratio, cell viability, ornithine response and cystine response were performed with GraphPad Prism (version 9.1 or newer, GraphPad Software). Each data set was fit with a nonlinear model. The standard model used for analysis is a four-parameter log-logistic nonlinear model. However, the Akaike information criterion (GraphPad Prism) was used to determine if an asymmetric (five-parameter) or multiphasic nonlinear model was a better fit for the data than the four-parameter model. The developmental toxicity potential (dTP, o/c ratio) and toxicity potential (TP, cell viability) concentrations were predicted from the respective dose-response curves using the hiPSCs cell developmental toxicity threshold (dTT, 0.85).
# [6] = evidence of developmental or reproductive toxicity in animal or human, irrespective of exposure/dose, ref Supplementary Data Sheet 1
# [7] = Non-Pregnant population, TKVF95 = p95 / weighted mean concentration-dose ratio
# [8] = Fetus population, TKVF95 = p95 / weighted mean concentration-dose ratio
# [9] = Pregnant population, TKVF95 = p95 / weighted mean concentration-dose ratio
# [10] = Non-Pregnant, combined (oral, IV)
structure (smiles),measurement,setting,value
CN(C)C(=N)N=C(N)N [Metformin],Exposure risk (DART risk classification),"[1]; Pharmaceutical, 2,000 mg/daily",Low Risk
same,highest dose not teratogenic,rats; rats,600 mg/kg/day
same,DART Hazard Call,[2]; [6],Non Toxic
same,highest dose not teratogenic,rabbits; rabbits,600 mg/kg/day
same,CDR fold difference to non-pregnant,"[3]; female, human, in vivo",0.73
same,CDR fold difference to pregnant,"[3]; female, human, in vivo",1.00
same,TKVF,"[3]; female, human, in vivo",2.75
same,95% percentile (Conc-dose-ratio),"[3]; female, human, in vivo, po",0.0213
same,Fold Difference to non-pregnant,"[3]; female, human, in vivo, po",0.73
same,Fold Difference to pregnant,"[3]; female, human, in vivo, po",1.00
same,Mean Conc-dose -ratio,"[3]; female, human, in vivo, po",0.008 uM/(mg/day]
same,TKVF,"[3]; female, human, in vivo, po",2.75
same,CDR fold difference to pregnant,"[3]; human, in vivo",0.56
same,Fold Difference to pregnant,"[3]; human, in vivo, po",0.56
"CN(Cc1cnc2nc(N)nc(N)c2n1)c1ccc(C(=O)N[C@@H](CCC(=O)O)C(=O)O)cc1 [Methotrexate (MTX), Methotrexate]",Exposure risk (DART risk classification),"[1]; Pharmaceutical, 10 mg/weekly",High Risk
same,DART Hazard Call,[2]; [6],Toxic
same,concentration leading to effects on iPSC differentiation,"[4]; additional testing in ReproTracker, data not shown",above 0.0085 μM
same,BER from devTOX quickPredict,"[5]; PoD 0.06 μM, high-risk scenario 10 mg/weekly",~1
same,concentration at which disruption to iPSC metabolism was detected,[5]; devTOX quickPredict,0.06 µM
same,TKVF,[3]; [7],2.74
same,TKVF,"[3]; Non-Pregnant, combined (oral, intramuscular, subcutaneous)",2.74
same,CDR fold difference to non-pregnant,"[3]; female, human, in vivo",1.11
same,TKVF,"[3]; female, human, in vivo",2.65
same,95% percentile (Conc-dose-ratio),"[3]; female, human, in vivo, sc",0.15
same,Fold Difference to non-pregnant,"[3]; female, human, in vivo, sc",1.11
same,Mean Conc-dose -ratio,"[3]; female, human, in vivo, sc",0.055 uM/(mg/day]
same,TKVF,"[3]; female, human, in vivo, sc",2.65
same,CDR fold difference to non-pregnant,"[3]; human, in vivo",1.00
CCN(CC)CCNC(=O)c1cc(Cl)c(N)cc1OC [Metoclopramide],"exposure without adverse developmental effects, multiple of maximum recommended human dose","rats; oral, pregnant rats",~6 times
same,DART Hazard Call,[2],Toxic
same,"exposure without adverse developmental effects, multiple of maximum recommended human dose","rabbits; oral, pregnant rabbits",~12 times
same,TKVF,[3]; [8],1.97
same,TKVF,"[3]; Foetus, IV",1.97
same,TKVF,[3]; [7],2.85
same,TKVF,"[3]; Non-Pregnant, combined (oral+IV)",2.85
same,TKVF,[3]; [9],2.71
same,TKVF,"[3]; Pregnant, IV",2.71
CN(CCOc1ccc(CC2SC(=O)NC2=O)cc1)c1ccccn1 (stereo not drawn) [Rosiglitazone],"no-effect dose for effects on the placenta, embryo/fetus and offspring",rats; rats,0.2 mg/kg/day
same,"no-effect dose for effects on the placenta, embryo/fetus and offspring",rabbits; rabbits,15 mg/kg/day
same,TKVF,"[3]; female, human, in vivo",1.71
same,TKVF,"[3]; female, human, in vivo, po",1.71
same,TKVF,"[3]; human, in vivo",4.34
same,TKVF,"[3]; human, in vivo, po",4.34
"CCCC(CCC)C(=O)O [Valproic acid (VPA), Valproic acid]",Exposure risk (DART risk classification),"[1]; Pharmaceutical, 600 mg/daily",High Risk
same,Exposure risk (DART risk classification),"[1]; Pharmaceutical, 3,600 mg/daily",High Risk
same,DART Hazard Call,[2]; [6],Toxic
same,BER from ReproTracker,[4]; Figure 8B,< 1
same,BER from devTOX quickPredict,[5]; Figure 8B,< 1
same,CDR fold difference to non-pregnant,[3]; Fetus population,0.78
same,CDR fold difference to pregnant,[3]; Fetus population,1.13
same,TKVF,[3]; [8],1.52
same,95% percentile (Conc-dose-ratio),"[3]; Foetus, combined (oral, IV)",0.52
same,Fold Difference to non-pregnant,"[3]; Foetus, combined (oral, IV)",0.78
same,Fold Difference to pregnant,"[3]; Foetus, combined (oral, IV)",1.13
same,Mean Conc-dose -ratio,"[3]; Foetus, combined (oral, IV)",0.34 uM/(mg/day]
same,TKVF,"[3]; Foetus, combined (oral, IV)",1.52
same,CDR fold difference to non-pregnant,[3]; Non-Pregnant population (reference),1.00
same,TKVF,[3]; [7],1.62
same,95% percentile (Conc-dose-ratio),[3]; [10],0.71
same,Fold Difference to non-pregnant,[3]; [10],1.00
same,Mean Conc-dose -ratio,[3]; [10],0.44 uM/(mg/day]
same,TKVF,[3]; [10],1.62
same,CDR fold difference to non-pregnant,[3]; Pregnant population,0.69
same,CDR fold difference to pregnant,[3]; Pregnant population (reference),1.00
same,TKVF,[3]; [9],1.85
same,95% percentile (Conc-dose-ratio),"[3]; Pregnant, combined (oral, IV)",0.56
same,Fold Difference to non-pregnant,"[3]; Pregnant, combined (oral, IV)",0.69
same,Fold Difference to pregnant,"[3]; Pregnant, combined (oral, IV)",1.00
same,Mean Conc-dose -ratio,"[3]; Pregnant, combined (oral, IV)",0.30 uM/(mg/day]
same,TKVF,"[3]; Pregnant, combined (oral, IV)",1.85
CC(=O)CC(c1ccccc1)c1c(O)c2ccccc2oc1=O (stereo not drawn) [Warfarin],ReproTracker outcome,"[4]; at higher concentrations, not sensitive enough for a protective PoD",flags potential embryotoxicity
same,TKVF,"[3]; female, human, in vivo",1.93
same,TKVF,"[3]; female, human, in vivo, po",1.93
same,TKVF,"[3]; human, in vivo",1.82
same,TKVF,"[3]; human, in vivo, po",1.82
